US20230116703A1, “NOVEL ERGOLINES AND METHODS OF TREATING MOOD DISORDERS” (priority 2021, published 2023)
Like-named read-outs stand apart in the source and are kept apart here.

How the values were obtained:
[1] = biological target: T1, 5-HT1A receptor (Homo sapiens, UniProt P08908); assay: cell-based
T1 construct: host or cells: CHO cells
T1 sequence (P08908 1-422): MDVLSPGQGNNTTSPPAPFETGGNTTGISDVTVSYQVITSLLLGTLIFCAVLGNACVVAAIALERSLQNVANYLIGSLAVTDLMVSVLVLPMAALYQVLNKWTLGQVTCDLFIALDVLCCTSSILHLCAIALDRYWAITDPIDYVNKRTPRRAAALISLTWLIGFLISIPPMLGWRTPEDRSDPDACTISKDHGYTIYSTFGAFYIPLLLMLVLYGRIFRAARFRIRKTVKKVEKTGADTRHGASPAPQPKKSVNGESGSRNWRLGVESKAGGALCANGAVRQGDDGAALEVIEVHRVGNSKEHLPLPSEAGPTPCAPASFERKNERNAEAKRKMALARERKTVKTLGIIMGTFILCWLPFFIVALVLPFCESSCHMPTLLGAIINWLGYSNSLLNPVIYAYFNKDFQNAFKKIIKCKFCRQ

[2] = biological target: T2, 5-HT2B receptor (Homo sapiens, UniProt P41595); assay: cell-based; conditions: Ca^2+ flux, agonist; read-out: 5-HT2B EC50
T2 construct: host or cells: HEK293
T2 sequence (P41595 whole entry): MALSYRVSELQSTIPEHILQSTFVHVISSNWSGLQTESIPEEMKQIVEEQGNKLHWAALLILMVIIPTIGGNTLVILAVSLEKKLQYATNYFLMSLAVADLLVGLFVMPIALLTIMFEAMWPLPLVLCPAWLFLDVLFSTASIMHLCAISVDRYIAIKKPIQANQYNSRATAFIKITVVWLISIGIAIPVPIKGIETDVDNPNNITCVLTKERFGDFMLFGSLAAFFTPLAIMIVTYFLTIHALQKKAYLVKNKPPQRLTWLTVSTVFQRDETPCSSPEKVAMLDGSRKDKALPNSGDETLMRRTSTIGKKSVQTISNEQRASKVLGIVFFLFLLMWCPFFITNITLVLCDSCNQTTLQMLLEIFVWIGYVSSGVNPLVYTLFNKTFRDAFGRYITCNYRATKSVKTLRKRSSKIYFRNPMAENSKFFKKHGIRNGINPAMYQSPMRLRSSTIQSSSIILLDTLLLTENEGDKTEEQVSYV

[3] = biological target: T3, human 5-HT2C receptor (Homo sapiens, UniProt P28335); assay: cell-based; conditions: Ca^2+ flux, agonist
T3 sequence (P28335 33-458): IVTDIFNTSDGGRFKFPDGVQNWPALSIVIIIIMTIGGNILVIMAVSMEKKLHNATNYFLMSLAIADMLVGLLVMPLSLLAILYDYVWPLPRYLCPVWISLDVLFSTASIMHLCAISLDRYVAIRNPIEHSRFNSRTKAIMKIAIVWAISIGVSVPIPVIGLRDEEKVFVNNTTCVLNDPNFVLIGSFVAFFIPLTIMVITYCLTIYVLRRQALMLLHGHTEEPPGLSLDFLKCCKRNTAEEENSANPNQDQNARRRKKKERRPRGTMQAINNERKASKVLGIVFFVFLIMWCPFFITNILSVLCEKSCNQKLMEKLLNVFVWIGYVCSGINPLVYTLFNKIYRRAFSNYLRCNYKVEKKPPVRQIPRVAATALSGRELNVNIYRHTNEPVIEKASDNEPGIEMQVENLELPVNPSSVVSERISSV

[4] = Metabolic stability in mouse liver microsomes (MLM); assay type: in vitro ADME; conditions: 0.50 mg protein per mL; for t1/2: MLM (CD-1), 1 μM; for microsomal CLint at 1 μM: mouse, pooled mouse liver microsomes, pH 7.4, MLM (CD-1)
From the text: MLM Stability Pooled MLM from CD-1 mice (BIOIVT M00501) were used.

[5] = Metabolic stability in rat liver microsomes (RLM); conditions: for t1/2: RLM, 0.50 mg protein per mL; for microsomal CLint at 1 μM: both, rat, pooled rat liver microsomes, pH 7.4
[6] = biological target: T4, 5-HT2A receptor (Homo sapiens, UniProt P28223); assay: PathHunter beta-arrestin recruitment assay at 5-HT2A; assay type: cell-based
T4 construct: host or cells: HEK293
T4 sequence (P28223 whole entry): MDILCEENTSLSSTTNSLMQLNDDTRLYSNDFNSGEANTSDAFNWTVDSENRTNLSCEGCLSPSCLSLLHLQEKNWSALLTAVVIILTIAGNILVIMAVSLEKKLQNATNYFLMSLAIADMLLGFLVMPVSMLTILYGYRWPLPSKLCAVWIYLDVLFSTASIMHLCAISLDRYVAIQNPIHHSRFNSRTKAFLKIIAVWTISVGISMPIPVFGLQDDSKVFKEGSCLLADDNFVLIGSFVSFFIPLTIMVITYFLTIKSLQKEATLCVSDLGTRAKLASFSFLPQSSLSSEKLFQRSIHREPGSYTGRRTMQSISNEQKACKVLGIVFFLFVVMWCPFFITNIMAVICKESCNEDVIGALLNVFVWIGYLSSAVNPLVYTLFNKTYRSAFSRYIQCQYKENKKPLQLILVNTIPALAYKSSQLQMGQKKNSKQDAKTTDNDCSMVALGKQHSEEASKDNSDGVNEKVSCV
Experimental: The degree of arrestin bias varied substantially across the other compounds tested as well.
Arrestin Functional Assay at 5-HT2A. Recruitment of beta-arrestin was determined using a PathHunter assay at Eurofins DiscoverX (Fremont, Calif.) according to their standard protocols. PathHunter GPCR beta-arrestin assays take advantage of DiscoverX's proprietary Enzyme Fragment Complementation technology. The GPCR is fused in frame with a small enzyme donor fragment ProLink™ (PK) and co-expressed in cells stably expressing a fusion protein of beta-arrestin and the larger, N-terminal deletion mutant of beta-galactosidase. Activation of the GPCR (5-HT2A receptor in this case) stimulates binding of beta-arrestin to the PK-tagged GPCR and forces complementation of the two enzyme fragments, resulting in the formation of an active beta-galactosidase enzyme. This interaction leads to an increase in enzyme activity that can be measured using chemiluminescent PathHunter Detection Reagents. Briefly, PathHunter cells expressing 5-HT2A receptors were seeded in a volume of 20 μL into 384-well plates and incubated at 37° C. for the appropriate time prior to testing. […] Plates were then imaged on a microplate reader and the agonist activity was calculated using the following formula: % Activity=100%×(mean RLU of test sample−mean RLU of vehicle control)/(mean MAX control ligand−mean RLU of vehicle control), where RLU=relative light units.

[7] = biological target: T4, 5-HT2A receptor; assay: cell-based; assay type: cell-based; conditions: Ca^2+ flux, agonist; read-out: 5-HT2A EC50
[8] = biological target: T4, 5-HT2A receptor; assay: biochemical; assay type: binding; conditions: 1 nM [^3H]ketanserin, HEK293 stable cell line; read-out: 5-HT2A Receptor Ki (nM) ([^3H]ketanserin)
Summary of the method: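 Test compounds competed with [^3H]ketanserin for receptor binding, and affinity was derived from the radioligand displacement.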

[9] = Metabolic stability in human liver microsomes (HLM); assay type: in vitro ADME; conditions: for t1/2: 1 μM, 0.50 mg protein per mL; for microsomal CLint at 1 μM: both sexes, human, pooled human liver microsomes, pH 7.4, 0.50 mg protein per mL
From the text: HLM Stability. Pooled HLM from adult male and female donors (Corning 452117) were used.

[10] = tested on: C57BL/6 mice; assay: Head twitch response (HTR) in mice; assay type: in vivo, mouse; conditions: mouse HTR, SC
Experimental: Agonists of the 5-HT2A receptor are well known to induce this effect in rodents and the potency of this HTR is correlated with hallucinogenic potency in humans.
Animals. Adult male C57BL/6 mice, aged 6-8 weeks (body weight 20-25 g) were used in this experiment. Animals were housed under controlled temperatures and 12-hour light/dark cycles (lights on between 07:00-19:00 h), with ad libitum food and water. This study was carried out in strict accordance with the requirements of the Committee for the Purpose of Control and Supervision of Experiments on Animals (CPCSEA), India. All efforts were made to minimize suffering.
Drugs and Drug Administration. Compound 1 was synthesized as described above. It was administered subcutaneously (SC) dissolved in saline vehicle at a volume of 10 mL/kg. Five doses were tested, with n=6 animals/group. Doses were calculated on the basis of the freebase.
Procedure. Mice were administered one dose of the drug and immediately placed into a small open field for behavioral observation. Animals were observed continuously for 20 mins and the number of head twitches (HTs) were counted by an observer blind to the treatment condition.
Statistical Analysis. The data points shown are the mean±standard error of the mean (SEM). Analysis was performed using GraphPad Prism 6. Curves were fit using a non-linear gaussian distribution to calculate ED50 and Emax values.
Additional disclosed compounds were tested in the mouse head twitch response (HTR) assay according to the procedure described in Example 43. […] Lastly, compounds with much larger benzyl and phenethyl substituents on the amine nitrogen (e.g., 10 and 11) were low efficacy in this assay, consistent with their lower maximal efficacy in the arrestin functional assay (see Example 41).

[11] = Ca^2+ flux, agonist, read-out: 5-HT1A EC50

Row | SMILES | EC50 [1, 11] | EC50 [2] | EC50 [3] | t1/2 [4] | microsomal CLint at 1 μM [4] | t1/2 [5] | microsomal CLint at 1 μM [5] | EC50 [6] | EC50 [7] | Ki [8] | t1/2 [9] | microsomal CLint at 1 μM [9] | EC50 [1] | Emax ([6]; 5-HT2A beta-arrestin) | agonist type in arrestin recruitment assay (in words) ([6]; 5-HT2A beta-arrestin) | ED50 ([10]; 20 min, 20 min observation, curve fit, poor in some cases, read-out: ED50 (95% CI)) | Most Efficacious Dose [10] | Emax (95% CI) ([10]; 20 min observation, curve fit, poor in some cases)
1 | CCC[C@@H](C)NC(=O)[C@H]1C=C2c3cccc4[nH]cc(c34)C[C@H]2N(C)C1 [Int17a, (6aR,9S)-7-methyl-N—((R)-pentan-2-yl)-4,6,6a,7,8,9-hexahydroindolo[4,3-fg]quinoline-9-carboxamide] | 266 nM | > 10000 nM | 962 nM | 1.576 min | 880 µL/min/mg | 1.961 min | 707 µL/min/mg | 75.8 nM | 425 nM | 41.3 nM | 4.578 min | 303 µL/min/mg |  |  |  |  |  | 
2 | CCCN1C[C@@H](C(=O)N[C@H](C)CC)C=C2c3cccc4[nH]cc(c34)C[C@H]21 [Compound 3a, (6aR,9S)—N—((R)-sec-butyl)-7-propyl-4,6,6a,7,8,9-hexahydroindolo[4,3-fg]quinoline-9-carboxamide] | 155 nM | 1820 nM | 132 nM | 0.6 min | 2490 µL/min/mg | 1.4 min | 960 µL/min/mg | 54 nM | 146 nM | 27.6 nM | 2.2 min | 63.4 µL/min/mg |  |  |  |  |  | 
3 | CCN(CC)C(=O)[C@H]1C=C2c3cccc4[nH]cc(c34)C[C@H]2N(CCCF)C1 [Compound 2a, (6aR,9S)—N,N-diethyl-7-(3-fluoropropyl)-4,6,6a,7,8,9-hexahydroindolo[4,3-fg]quinoline-9-carboxamide] | 543 nM | 2170 nM | 256 nM | 1.776 min | 780 µL/min/mg | 9.673 min | 143 µL/min/mg | 50.6 nM | 169 nM | 115 nM | 17.018 min | 81.4 µL/min/mg |  |  |  |  |  | 
4 | CC[C@@H](C)NC(=O)[C@H]1C=C2c3cccc4[nH]cc(c34)C[C@H]2N(CC)C1 [Compound 5a, (6aR,9S)—N—((R)-sec-butyl)-7-ethyl-4,6,6a,7,8,9-hexahydroindolo[4,3-fg]quinoline-9-carboxamide] | 131 nM | 2510 nM | 811 nM | 1.7 min | 834 µL/min/mg | 3.1 min | 453 µL/min/mg | 66.8 nM | 118 nM | 74.5 nM | 5.5 min | 251 µL/min/mg |  |  |  |  |  | 
5 | C[C@H]1C[C@H](C)N1C(=O)[C@@H]1C=C2c3cccc4[nH]cc(c34)C[C@H]2N(C)C1 [Int11, ((2S,4S)-2,4-dimethylazetidin-1-yl)((6aR, 9R)-7-methyl-4,6,6a,7,8,9-hexahydroindolo[4,3-fg]quinolin-9-yl)methanone] |  | 96.6 nM |  | 13.9 min | 100 µL/min/mg | 54.9 min | 25.3 µL/min/mg | 1.57 nM | 37 nM | 2.22 nM | 25.7 min | 53.9 µL/min/mg | 8.88 nM | < 60% | partial agonists | 0.0154 mg/kg | 0.1 mg/kg | 10.93 (9.181-12.76)
6 | CCC(CC)NC(=O)[C@H]1C=C2c3cccc4[nH]cc(c34)C[C@H]2N(C)C1 [Int14a, (6aR,9S)-7-methyl-N-(pentan-3-yl)-4,6,6a,7,8,9-hexahydroindolo[4,3-fg]quinoline-9-carboxamide] |  | > 10000 nM | 508 nM | 1.699 min | 816 µL/min/mg | 1.8 min | 770 µL/min/mg | 35.7 nM | 468 nM | 56.2 nM | 3.35 min | 414 µL/min/mg | 1550 nM |  |  |  |  | 
7 | CC[C@@H](C)NC(=O)[C@H]1C=C2c3cccc4[nH]cc(c34)C[C@H]2N(C)C1 [Int8a, (6aR,9S)—N—((R)-sec-butyl)-7-methyl-4,6,6a,7,8,9-hexahydroindolo[4,3-fg]quinoline-9-carboxamide] | 163 nM | > 10000 nM | 160 nM | 1.6 min | 843 µL/min/mg | 3.5 min | 394 µL/min/mg | 19.3 nM | 178 nM | 84.3 nM | 11.1 min | 125 µL/min/mg |  |  |  |  |  | 
8 | C=CCN1C[C@@H](C(=O)N[C@H](C)CC)C=C2c3cccc4[nH]cc(c34)C[C@H]21 [Compound 8a, (6aR,9S)-7-allyl-N—((R)-sec-butyl)-4,6,6a,7,8,9-hexahydroindolo[4,3-fg]quinoline-9-carboxamide] | 1560 nM | 3590 nM | > 10000 nM | 0.8 min | 1660 µL/min/mg | 1.7 min | 835 µL/min/mg | 1180 nM | 396 nM | > 1230 nM | 3.4 min | 409 µL/min/mg |  |  |  |  |  | 
